# Experimental data from US20240382590A1, “NOVEL TUMOR-SPECIFIC ANTIGENS FOR CANCER STEM CELLS AND USES THEREOF” (UNIVERSITÉ DE MONTRÉAL, priority 2021, published 2024).
# Entries after “also recorded” stand apart in the source; their conditions may differ.
# What was measured:
# CD8+ T cells [1] = assay: FEST assay (functional expansion of specific T cells, TCR Vβ CDR3 sequencing); type: cell-based, human; conditions: for Number of TCRβ clonotypes specifically expanded: FEST assay, donor D12, stimulation with a single peptide or a pool; for TCRß clonotype (TCRß CDR3 sequence) amplified: Table 3B, in vitro stimulation with peptide alone or pool, donor D12
# Procedure: In vitro peptide-specific T cell expansion. Peptide-specific CD8^+ T cells from 4 healthy donors were expanded in vitro (D11, D12, D13, and D14). The expanded cells from D12 were used for FEST and tetramer staining assays, whereas the expanded cells from D11, D13, and D14 were used only for tetramer staining assays.
# T cells were cultured as previously described, with minor modifications (Danilova et al., 2018). Briefly, on day 0, thawed PBMCs from each healthy donor (BioIVT) were T cell-enriched using the Human Pan T cell isolation kit (Miltenyi Biotec). T cells were resuspended at 2×10^6/mL in AIM V media supplemented with 50 μg/mL gentamicin (ThermoFisher Scientific) and 1% HEPES. The T cell-negative fraction was irradiated at 30 Gy, washed, and resuspended at 2×10^6/mL in AIM V media supplemented with 50 μg/mL gentamicin and 1% HEPES. 2.5 ml per well of both T cells and irradiated T cell-depleted cells were added to a 6-well plate, along with either a peptide alone, a peptide pool (up to 6 MAPs per pool, 1 μg/mL final concentration for each MAP) or without peptide. Cells were cultured for 10 days at 37° C., 5% CO2. On day 3 and 7, half the culture media was replaced with fresh culture media containing 100 IU/mL IL-2, 50 ng/mL IL-7, and 50 ng/mL IL-15 (day 3) and 200 IU/mL IL-2, 50 ng/mL IL-7, and 50 ng/mL IL-15 (day 7). On day 10, thawed PBMCs from the same donor were used to generate a new batch of T cell-depleted cells. These cells were irradiated at 30 Gy and added to cultures at a 1:1 T cell:non-T cell ratio, along with 1 μg/mL of relevant peptide(s) or without peptide. On day 13 and 17, at least half the culture media was replaced with fresh culture media (final concentrations: 100 IU/mL IL-2, 25 ng/mL IL-7, and 25 ng/mL IL-15). On day 20, cells were harvested to perform tetramer staining and/or FEST assays.
# FEST assays. For FEST assays, CD8^+ cells were further isolated using the Human CD8^+ T Cell Isolation Kit (Miltenyi Biotec). As a negative control, CD8^+ T cells were also isolated from freshly thawed uncultured PBMCs of the same healthy donor. DNA was extracted from CD8^+ T cells using a QIAGEN DNA blood mini kit (QIAGEN). TCR Vβ CDR3 sequencing was performed using the survey resolution of the immunoSEQ platform (Adaptive Biotechnologies). Raw data exported from the immunoSEQ portal were processed with the FEST web tool (www.stat-apps.onc.jhmi.edu/FEST).
# Given that paMAPs are appealing targets for immunotherapy, their immunogenicity was tested using in vitro T cell assays with peripheral blood mononuclear cells (PBMCs) from healthy donors. paMAPs were prioritized based on four criteria: i) the immunogenicity score predicted by Repitope, a machine learning algorithm that uses public T-cell receptor (TCR) databases to predict a probability of T cell response (Ogishi and Yotsuyanagi, 2019), ii) the HLA allotype presenting the paMAP (HLAA*02:01 or HLA-B*53:01 shared by the iPSCs and PBMCs donors), iii) expression in minimum 10% of the samples in at least one TOGA cancer type (FIG. 3), and iv) novel MAP status. The […] T cell response against 11 paMAPs was tested using peptide-HLA tetramer staining and/or more sensitive functional expansion of specific T cells (FEST) assays (Danilova et al., 2018). In FEST assays, TCR sequencing is performed on T cells stimulated or not with synthetic paMAPs. T cells were stimulated in vitro with autologous T cell-depleted PBMCs pulsed with individual or pooled (n=5 or 6) paMAPs (Tables 3A-B).
# CD8+ T cells [2] = assay: Peptide-HLA tetramer staining after in vitro peptide-specific T cell expansion; type: cell-based, human; conditions: healthy donor PBMCs after 20 days in vitro stimulation
# Procedure: T cells were resuspended at 2×10^6/mL in AIM V media supplemented with 50 μg/mL gentamicin (ThermoFisher Scientific) and 1% HEPES. […] Cells were cultured for 10 days at 37° C., 5% CO2. On day 3 and 7, half the culture media was replaced with fresh culture media containing 100 IU/mL IL-2, 50 ng/mL IL-7, and 50 ng/mL IL-15 (day 3) and 200 IU/mL IL-2, 50 ng/mL IL-7, and 50 ng/mL IL-15 (day 7). On day 10, thawed PBMCs from the same donor were used to generate a new batch of T cell-depleted cells.
# cytolytic T lymphocytes = conditions: MAGEA4-derived paMAPs; cited from earlier work
# iPSCs [3] = assay: Flow cytometry of surface HLA-A,B,C (QIFIKIT) and pluripotency markers on IFN-γ-treated iPSCs; type: cell-based, human; conditions: 40 ng/mL IFN-γ, 72 h
# Procedure: (§1) hiPSC22 cells derived from adult human skin fibroblasts using defective polycistronic retroviruses expressing OCT4, SOX2, KLF4, and c-MYC were obtained from Takara Bio (Cellartis human iPS cell line 22). hiPSC22 cells were cultured in the Cellartis® DEF-CS™ 500 Basal Medium with Additives (Takara Bio) on coated (Cellartis DEF-CS 500 COAT-1, Takara Bio) cell culture vessels according to the manufacturer's instructions. Fibro-iPSC.1 and Fibro-iPSC.2 cells are biological replicates of the same iPS cell line reprogrammed from adult human dermal fibroblasts using lentiviruses expressing OCT4, SOX2, NANOG, and LIN28, as per (Hong et al., 2011), and were provided by Dr. Mick Bathia (McMaster University, Ontario, Canada). […]
# Single-cell suspensions were stained with PerCP-Cy5.5 Mouse anti-Oct3/4, PE Mouse anti-SSEA-1, Alexa Fluor 647 Mouse anti-SSEA-4 antibodies or the respective isotypes (Human and Mouse Pluripotent Stem Cell Analysis Kit, BD Biosciences), APC/Cyanine7 anti-human/mouse SSEA-3 (BioLegend) or the APC-Cy™7 Rat IgM, K Isotype Control (BD Biosciences) according to the manufacturers' instructions. Surface HLA-A,B,C molecules were quantified using a QIFIKIT (FITC conjugate, Agilent Dako) as per the manufacturer's instructions. Flow cytometry experiments were performed on a ZE5 (Bio-Rad), and data were analyzed using the FlowJo software. […]
# iPSCs [4] = assay: MS-based identification of MHC I-associated peptides from iPSCs; set-up: species or system human; conditions: 40 ng/mL IFN-γ, 72 h
# Procedure: as §1, with “Canada). Fibro-iPSC.1 and Fibro-iPSC.2 were cultured on Matrigel® (Corning, diluted in DMEM/F-12 from Gibco)-coated cell culture vessels in mTeSR1 medium ([…]), according to the manufacturer's instructions. All iPSCs were passaged using the Gentle Cell Dissociation Reagent ([…]) or were dissociated to single cells using TrypLE Express (Gibco) and washed with DPBS (Gibco) for downstream analyses. After removing 3-5×10^6 iPSCs for RNA-seq and 5×10^6 cells for flow cytometry, iPSCs were pelleted and stored at −80 degrees C. until MS analysis.” for “Canada).”
substance,measurement,setting,value
ALYPQPPTV (listed as Homo sapiens) [paMAP],Number of TCRβ clonotypes specifically expanded,CD8+ T cells [1],two to four
same,TCRß clonotype (TCRß CDR3 sequence) amplified,CD8+ T cells [1]; listed as pa_11,CASSYRTGSAEAFF (SEQ ID NO: 77); also recorded: CASSLGGAYEQYF (SEQ ID NO: 78); also recorded: CASSYPQGGEQFF (SEQ ID NO: 79); also recorded: CATSRGTGVNTEAFF (SEQ ID NO: 80)
FLLPGVLLSEA (listed as Homo sapiens) [previously reported saMAP from UGT3A2],T-cell response (immunogenicity) by peptide-HLA tetramer staining,CD8+ T cells [2],immunogenic in one donor
GVYDGREHTV (listed as Homo sapiens) [previously reported paMAP derived from MAGEA4],Immunogenic in previous studies,cytolytic T lymphocytes,immunogenic in previous studies
IFN-γ: recombinant human IFN-γ (Gibco) used to raise MHC I on iPSCs,Increase in surface HLA-A/B/C levels,iPSCs [3]; average of three fibroblast-derived iPSC samples,34 fold
same,Expression of canonical pluripotency markers,iPSCs [3]; iPSCs,without affecting the expression of canonical pluripotency markers
same,More unique MAPs detected than for untreated iPSCs,iPSCs [4],1.8-4.5 fold
KLAQIIRQV (listed as Homo sapiens) [paMAP],T-cell response (immunogenicity) by peptide-HLA tetramer staining,CD8+ T cells [2],one out of four donors
KVLEHVVRV (listed as Homo sapiens) [previously reported paMAP derived from MAGEA4],Immunogenic in previous studies,cytolytic T lymphocytes,immunogenic in previous studies
LPMWKALLF (listed as Homo sapiens) [paMAP],Number of TCRβ clonotypes specifically expanded,CD8+ T cells [1],two to four
same,TCRß clonotype (TCRß CDR3 sequence) amplified,CD8+ T cells [1]; listed as pa_06,CASSGPGDQPQHF (SEQ ID NO: 83); also recorded: CASSEWGSRAGGGDTQYF (SEQ ID NO: 84)
SLLGSSEILEV (listed as Homo sapiens) [paMAP],Number of TCRβ clonotypes specifically expanded,CD8+ T cells [1],two to four
same,TCRß clonotype (TCRß CDR3 sequence) amplified,CD8+ T cells [1]; listed as pa_12,CASSSRTDTYSPLHF (SEQ ID NO: 81); also recorded: CASSLGRWNSPLHF (SEQ ID NO: 82)
same,T-cell response (immunogenicity) by peptide-HLA tetramer staining,CD8+ T cells [2],one out of four donors
VTLSTYFHV (listed as Homo sapiens) [paMAP],Number of TCRβ clonotypes specifically expanded,CD8+ T cells [1],two to four
same,TCRß clonotype (TCRß CDR3 sequence) amplified,CD8+ T cells [1]; listed as pa_10,CASSKWGSYGYTF (SEQ ID NO: 75); also recorded: CASSLPDTTYEQYF (SEQ ID NO: 76)
